Numbered stars: 1 amine (or outer) side, 2 acyl side, 3 side chain; on linkers, the order of the positions; unused ones are H or OH. Square brackets hold non-standard residues; d marks the D form. Peptide text beside a SMILES is read from it. X1 = [N-]=[N+]=NCCCCN1C[C@@H](N[*:1])C[C@H]1C(=O)[*:2]
What was measured:
human αvβ6 integrin = target: T1, human αvβ6 integrin (Homo sapiens, UniProt P06756+P18564, DEL708-788); experiment: Competitive solid-phase αvβ6 integrin binding assay to coated LAP; details: competitive solid-phase binding to coated LAP (0.4 μg/mL); soluble human αvβ6 0.25 μg/mL; compounds 10^-5–10^-10 M, 1 h room temperature; absorbance 450 nm; mean ± SD of three independent experiments in triplicate
T1 construct: purchased R&D Systems
Protocol: The ability of conjugate 1 to bind to the human, isolated αvβ6 integrin receptor was evaluated by a competitive solid-phase ligand-binding assay on purified αvβ6 integrin in the presence of increasing concentrations (10^–10–10^–5 M) of 1. To better evaluate the impact of the linker and nintedanib moieties on the binding capability of 1, the results (Table ) were compared to those obtained for free cyclopeptide 3 and previously reported cyclopeptide 11 (the deprotected version of prot-11, Scheme ). Binding curves are provided in Figure S3, Supporting Information.
The affinity of integrin ligands 1, 3, and 11 was determined by the solid-phase binding assay using soluble αvβ6 integrin and coated LAP, according to a previously reported protocol. Flat-bottom 96-well plates (Corning Costar, Segrate, Milan, Italy) were coated by passive adsorption with LAP (TGF-β; 0.4 μg/mL; R&D Systems) in carbonate buffer (15 mM Na2CO3 and 35 mM NaHCO3, pH 9.6; 100 μL/well) overnight at 4 °C. After three washes with PBS-T buffer (phosphate-buffered saline–Tween20, 137 mM NaCl, 2.7 mM KCl, 10 mM Na2HPO4, 2 mM KH2PO4, and 0.01% Tween20, pH 7.4; 200 μL/well), wells were blocked with TS-B buffer (Tris–saline/BSA buffer; 20 mM Tris–HCl, 150 mM NaCl, 1 mM CaCl2, 1 mM MgCl2, 1 mM MnCl2, pH 7.5, and 1% BSA; 150 μL/well) for 1 h at room temperature. After washing the assay plate three times with PBS-T (200 μL/well), soluble human αvβ6 integrin (0.25 μg/mL, R&D Systems) was incubated with compounds and tested at different concentrations (10^–5–10^–10 M), in the coated wells for 1 h at room temperature. The plate was washed three times with PBS-T buffer, and anti-αv primary antibody (1:500 dilution, 100 μL/well; mouse antihuman MAB1978, Merck Life Science, Milan, Italy) was added and incubated for 1 h at room temperature. […] The reaction was stopped with 1 M H2SO4 (50 μL/well), and the absorbance was measured at 450 nm with an EnSpire Multimode Plate Reader (PerkinElmer, Waltham, MA). […] Data analysis and IC50 affinity values were calculated using GraphPad Prism 10.4.1 (GraphPad Software, San Diego, CA). […]

[1] = In vitro stability in mouse plasma (LC-MS/MS); format: in vitro ADME; details: 80% v/v mouse plasma in 100 mM PBS pH 7.4, 37 °C, plasma pre-incubated 10 min, 1% DMSO, LC-MS/MS (MRM, ESI+), vs t = 0, mean ± SD (n=3), read-out: % Compound at 6h mouse plasma
Protocol: (§1) 2. In vitro plasma stability of compounds 1 and 2
(§2) Stability of compounds 1 and 2 in mouse and human plasma was evaluated by incubating 5 μL of a 100 µM solution of each compound in DMSO with 400 μL of plasma and 95 μL of 100 mM phosphate buffered saline (PBS) pH 7.4 (final compound concentration: 1 µM; final DMSO concentration: 1%). Plasma samples were pre-incubated at 37 °C for 10 min before adding the compound. At different time points, an aliquot was withdrawn from each sample and deproteinized by addition of 100 μL of ice-cold acetonitrile containing the structurally related compound 13 as internal standard (Table S1). After a centrifugation step (14,000 g, 10 min, 4 °C), the supernatants were analyzed by LC-MS/MS. A multiple reaction monitoring (MRM) acquisition method in positive ion mode (ESI+) was set up to monitor the remaining percentages of test compound at different time points, if compared to time t = 0.
(§3) LC-MS/MS Analytical Method. A Thermo TSQ Quantum triple-quadrupole mass spectrometer (Thermo Italia, Milan, Italy) equipped with a heated electrospray (H-ESI) ion source and coupled to a Thermo Accela UHPLC system was employed for LC-MS/MS data acquisition and analysis. The LC separation occurred on a Waters XSelect HSS T3 column (3.5 μm, 2.1 × 100 mm; Waters, Milford, USA) at room temperature. […]

[2] = In vitro stability in human plasma (LC-MS/MS); format: in vitro ADME; details: 80% v/v human plasma in 100 mM PBS pH 7.4, 37 °C, plasma pre-incubated 10 min, 1% DMSO, LC-MS/MS (MRM, ESI+), vs t = 0, mean ± SD (n=3), read-out: % Compound at 6h human plasma
Protocol: as §1, §2, §3

[3] = test system: p-ERK1/2 in hIPF fibroblasts; experiment: Western blot of ERK1/2 phosphorylation; format: cell-based, human; details: 24 h, 5 μM, Western blot densitometry normalized to vinculin, vs untreated, three independent experiments
Text: (§4) The effect of treatment with compound 1 on patient-derived hIPF fibroblasts was next investigated by evaluating the inhibition of both TGF-β1 production and ERK1/2 phosphorylation. It is important to note that TGF-β1 expression is usually evaluated in cultured cells in secreted form in their culture medium (soluble and active form of TGF-β1 (13 kDa)). We reasoned that the evaluation of the intracellular form of full-length TGF-β1 (44 kDa) in hIPF fibroblasts might directly reflect the potency of the conjugated compound to inhibit TGF-β1 production. Evaluation of these fibrosis-related hallmarks would have been indicative of the downstream effect of our conjugate on IPF-related human cell signaling promoted by either the integrin ligand, the nintedanib component, or both. […]
(§5) The protein content in each sample was quantified using the Bradford colorimetric assay, and 56 μg of total proteins was prepared for SDS-PAGE analysis using Bolt LDS Sample Buffer 4× (Novex, Life Technologies) with 10% Bolt Sample Reducing Agent 10× (Novex, Life Technologies). […] Each band detected was quantified by densitometric analysis, using ImageJ software, and normalized against vinculin expression as the housekeeper protein.

human recombinant VEGFR = test system: human recombinant VEGFR; parameters: method as in previously reported, see ref (number not given); details: ref previously reported, see ref (number not given); read-out: IC50, TKI activity against human recombinant VEGFR; cited from earlier work
hIPF fibroblasts = experiment: Cell internalization by flow cytometry (intrinsic nintedanib fluorescence); format: cell-based, human; details: 24 h, 5 μM, flow cytometry λex 405 nm, BV421 channel, one representative result
Protocol: Cells were exposed for 24 h for treatment with compound 1 or nintedanib at 5 μM concentration; next, the percentage of positive cells of different treatment populations was determined and compared with the fluorescence intensity of untreated (UT) cells.
The integrin-mediated cell internalization of conjugate 1 and free nintedanib was determined by exploiting the intrinsic fluorescence of the nintedanib moiety (λex = 405 nm; λem = 480 nm). Intracellular fluorescence activity of 5 μM nintedanib was measured by flow cytometry. Fluorescence emission was analyzed using the BD Brilliant Violet 421 channel (450/50 nm bandpass filter) for the 405 nm laser.
Briefly, 150,000 cells were seeded in T25 flasks in complete culture medium and treated for 24 h with nintedanib or compound 1 at 5 μM concentration. After incubation, the cells were washed with PBS, gently detached using trypsin–EDTA solution, and resuspended in complete medium. After centrifugation (1500 rpm for 5 min), the cells were washed in PBS and resuspended in 300 μL of PBS for FACS analysis.

[4] = test system: TGF-β1 in hIPF fibroblasts; experiment: Western blot of intracellular TGF-β1 (44 kDa) expression; format: cell-based, human; details: 24 h, 5 μM, Western blot densitometry normalized to vinculin, vs untreated, three independent experiments
Text: as §4, §5

[5] = test system: BLM-induced lung fibrosis; experiment: Antifibrotic therapy in BLM-induced lung fibrosis mouse model (Study #2; μCT, histology); format: in vivo, C57Bl/6 mice; details: day 14 to 21, BLM mice; for severe fibrotic lesions (Ashcroft score, histology): left lobe, Picrosirius red, day 21, vs BLM
Text: After triple BLM instillation, all mice underwent μCT imaging on days 14 and 21, indicating the beginning and the end of the therapeutic window. , On day 14, the BLM-treated mice were divided into 5 groups, namely, Vehicle, NINT (23), NINT (94), PepNIN 1 (23), and Ligand 11 (23). […] The two remaining groups received the NINT (23) (nintedanib at 23 μmol/kg) and ligand 11 (23) (cyclopeptide ligand 11 at 23 μmol/kg) alone to investigate the therapeutic effect of each single component at this reduced dosage.
Bleomycin hydrochloride (Baxter) dissolved in 50 μL of saline was administered via a triple oropharyngeal aspiration (OA) under 2.5% isoflurane anesthesia to induce pulmonary fibrosis, as previously described. , The negative control group received a triple OA with saline (Saline).
In Study #2, BLM-treated mice (29 of 35 mice) on day 14 were divided into 5 different groups (reported in Table S2, Supporting Information) and were daily treated with nintedanib (94 or 23 μmol/kg), PepNIN 1 (23 μmol/kg), integrin ligand 11 (23 μmol/kg), or vehicle (1% Tween 80 in ultrapure water) by oral gavage from day 14 to day 21. All mice were longitudinally monitored by μCT imaging on days 14 and 21, and subsequently they were sacrificed for the histological assessment of lung fibrosis.
Mice thoraxes were imaged using a Quantum GX Micro-CT scanner (Revvity, Inc. Waltham, MA) after anesthetic induction and maintenance with 2% isoflurane. Images were taken in free-breathing mice using the following parameters: an X-ray tube current of 88 A, an X-ray tube voltage of 90 kV, and a total angle of 360° over a scan period of 4 min. The detector was 736 × 588 pixels with a size of 0.2 mm. The reconstruction method automatically trimmed the pixels to produce a projection size of 512 × 512 pixels. Binning was not employed. Each animal was placed supine on the scanner bed, with its chest adjusted to fit inside the field of view. To detect the breathing pattern, pictures were captured in “high-speed” mode, allowing the recording of the gating signal through a region of interest (ROI) positioned over the animals’ diaphragm. Projections were collected in “list mode” (labeled as “00000”, “00001”, ···, “14′687”) during a single continuous gantry rotation. […] The acquisition duration was 4 min, and around 900 projections (both P01 and P02) were automatically selected and used for the reconstruction of the two data sets, with the option to change the thresholds to select the most suited projections. However, our highly controlled anesthetic protocol , enabled us to maintain constant breathing rates (100–120 bpm). Two stacks of 512 cross-sectional images were automatically reconstructed into two 3D data sets corresponding to the inspiratory and expiratory breathing phases (end-inspiration, P01; end-expiration, P02), with a 50 μm isotropic reconstructed voxel size, using a filtered back-projection algorithm with a Ram-Lak filter.

[6] = target: soluble human αvβ6 integrin (human) (UniProt P06756); experiment: ELISA; competitive solid-phase binding assay: LAP (0.4 μg/mL) coated in carbonate buffer pH 9.6 overnight at 4 °C, blocked with TS-B buffer (20 mM Tris–HCl, 150 mM NaCl, 1 mM CaCl2, 1 mM MgCl2, 1 mM MnCl2, pH 7.5, 1% BSA); soluble human αvβ6 (0.25 μg/mL) incubated with compounds (10^-5–10^-10 M) in the coated wells 1 h at room temperature; bound integrin detected with anti-αv antibody and HRP secondary
[7] = 94 μmol/kg oral gavage daily, vs BLM group

With `COC(=O)c1ccc2c(c1)NC(=O)/C2=C(\Nc1ccc(N(C)C(=O)CN2CCN(CCOCCOCCOCc3cn(CCCCN4C[C@@H]5C[C@H]4C(=O)N[C@@H](CC(C)C)C(=O)N[C@@H](CCCNC(=N)N)C(=O)NCC(=O)N[C@@H](CC(=O)O)C(=O)N[C@@H](CC(C)C)C(=O)N5)nn3)CC2)cc1)c1ccccc1` [compound 1] the IC50 (human αvβ6 integrin) was 1.95 ± 0.16 nM, the remaining at 6 h [1] was 95 ± 4% and the remaining at 6 h [2] was 96 ± 5%.

Work on `CC(C)C[C@@H]1NC(=O)[C@H](CC(=O)O)NC(=O)CNC(=O)[C@H](CCCNC(=N)N)NC(=O)[C@H](CC(C)C)NC(=O)[C@@H]2C[C@@H](CN2C(=O)CCCCCNC(=O)CCc2ccc(OC3=C(/C=C/C4=[N+](CCC[N+](C)(C)C)c5ccc(S(=O)(=O)O)cc5C4(C)C)CCC/C3=C\C=C3\N(CCC[N+](C)(C)C)c4ccc(S(=O)(=O)O)cc4C3(C)C)cc2)NC1=O` [compound 2] yielded a remaining at 6 h [1] of 59 ± 3% and a remaining at 6 h [2] of 51 ± 3%.

For `CC(C)C[C@@H]1NC(=O)[C@H](CC(=O)O)NC(=O)CNC(=O)[C@H](CCCNC(=N)N)NC(=O)[C@H](CC(C)C)NC(=O)[C@@H]2C[C@@H](CN2CCCCN=[N+]=[N-])NC1=O` [compound 3] (cyclo(RGDL[X1]L)), the IC50 (human αvβ6 integrin) was 4.52 ± 0.68 nM.

In the case of `CC(C)C[C@@H]1NC(=O)[C@H](CC(=O)O)NC(=O)CNC(=O)[C@H](CCCNC(=N)N)NC(=O)[C@H](CC(C)C)NC(=O)[C@@H]2C[C@@H](CN2C(=O)CCCCCN=[N+]=[N-])NC1=O` [compound 11], the IC50 (human αvβ6 integrin) is reported as 30.3 ± 7.6 nM.

For `COC(=O)c1ccc2c(c1)NC(=O)/C2=C(\Nc1ccc(N(C)C(=O)CN2CCN(C)CC2)cc1)c1ccccc1` [nintedanib], the ERK1/2 phosphorylation [3] is given as “reduced”, the IC50 (human recombinant VEGFR) is given as 7 nM and the “percentage of positive cells (internalization)” value (hIPF fibroblasts) is given as “about 94%”. The “percentage of positive cells (internalization)” value (hIPF fibroblasts; listed as NINT) was 93.8%, the “expression of intracellular form of TGF-β1 (44 kDa)” value [4] was “reduced” and the “severe fibrotic lesions (Ashcroft score, histology)” value ([5]; 23 μmol/kg oral gavage daily) was “had no effects”. For the same molecule, the “lung aeration by longitudinal μCT (%GasExpiration, poorly aerated tissue)” value ([5]; 23 μmol/kg oral gavage daily, vs BLM group) was “tendency toward disease progression”, the “severe fibrotic lesions (Ashcroft score, histology)” value ([5]; 94 μmol/kg oral gavage daily) was “clearly reduced severe fibrotic lesions” and the “CT biomarkers adjusted to own basal value on day 14” value [5, 7] was “statistically significant improvement”. For the same molecule, the “lung aeration by longitudinal μCT (%GasExpiration, poorly aerated tissue)” value [5, 7] was “significantly improved lung aeration”.

In the case of c(phg-isoDGRk) (peptide), the IC50 [6] is reported as 24.7 nM.
